# Laboratory results as given in PubChem BioAssay AID256 (DTP/NCI, 2004).
# “And” between values parts separate entries of the source, which are not always exact repeats. Equal values may be shown once. Toxic doses and inconclusive results are not listed.
# Test system: CD2F1 mice, L1210 leukemia ip, survival T/C
# Assay: NCI In Vivo Anticancer Drug Screen. Data for tumor model L1210 Leukemia (intraperitoneal) in CD2F1 (CDF1) mice
# Conditions: higher = longer survival
# Outline: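 Antitumor effect is scored in animals hosting a serially transplanted tumor. Values compare compound-dosed animals against vehicle-only controls as a simple quotient.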
# [1] = endpoint: mean survival time, dose: 100.0 mg/kg/injection, schedule: Q04DX003 (ip), vehicle: saline with Tween-80
# [2] = endpoint: mean survival time, dose: 200.0 mg/kg/injection, schedule: Q04DX003 (ip), vehicle: saline with Tween-80
# [3] = endpoint: mean survival time, dose: 400.0 mg/kg/injection, schedule: Q04DX003 (ip), vehicle: saline with Tween-80
# [4] = endpoint: mean survival time, dose: 100.0 mg/kg/injection, schedule: Q01DX001 (ip), vehicle: saline with Tween-80
# [5] = endpoint: mean survival time, dose: 200.0 mg/kg/injection, schedule: Q01DX001 (ip), vehicle: saline with Tween-80
# [6] = endpoint: mean survival time, dose: 400.0 mg/kg/injection, schedule: Q01DX001 (ip), vehicle: saline with Tween-80
# [7] = endpoint: mean survival time, dose: 50.0 mg/kg/injection, schedule: Q01DX009 (ip), vehicle: saline with Tween-80
# [8] = endpoint: mean survival time, dose: 100.0 mg/kg/injection, schedule: Q04DX003 (ip), vehicle: saline
# [9] = endpoint: mean survival time, dose: 200.0 mg/kg/injection, schedule: Q04DX003 (ip), vehicle: saline
# [10] = endpoint: mean survival time, dose: 100.0 mg/kg/injection, schedule: Q04DX003 (ip), vehicle: Klucel (hydroxypropylcellulose) (HPC)
# [11] = endpoint: mean survival time, dose: 200.0 mg/kg/injection, schedule: Q04DX003 (ip), vehicle: Klucel (hydroxypropylcellulose) (HPC)
# [12] = endpoint: mean survival time, dose: 400.0 mg/kg/injection, schedule: Q04DX003 (ip), vehicle: Klucel (hydroxypropylcellulose) (HPC)
smiles,measurement,setting,value
O=C1N(O)C2(CCCCC2)/C(=N/O)C12CCCCC2,T/C,"endpoint: mean survival time, dose: 75.0 mg/kg/injection, schedule: Q01DX001 (ip), vehicle: saline",100 % of control
same,T/C,"endpoint: mean survival time, dose: 150.0 mg/kg/injection, schedule: Q01DX001 (ip), vehicle: saline",94 % of control
same,T/C,"endpoint: mean survival time, dose: 300.0 mg/kg/injection, schedule: Q01DX001 (ip), vehicle: saline",94 % of control
OCC1C(CO)C2CC1C1N=NN(c3ccccc3)C21 (configuration not stated),T/C,"endpoint: mean survival time, dose: 100.0 mg/kg/injection, schedule: Q01DX001 (ip), vehicle: saline sonified",102 % of control
same,T/C,"endpoint: mean survival time, dose: 200.0 mg/kg/injection, schedule: Q01DX001 (ip), vehicle: saline sonified",100 % of control
same,T/C,"endpoint: mean survival time, dose: 400.0 mg/kg/injection, schedule: Q01DX001 (ip), vehicle: saline sonified",100 % of control
C[N+]1(C)CCS(=O)(=O)CC1,T/C,[1],94 % of control
same,T/C,[2],95 % of control
same,T/C,[3],86 % of control
O=C1C(Cc2ccccc2)CCCC1Cc1ccccc1 (configuration not stated),T/C,[4],100 % of control
same,T/C,[5],98 % of control
same,T/C,[6],102 % of control
NC(=S)c1cn(C2OC(CO)C(O)C2O)c2ncnc(N)c12 (configuration not stated),T/C,"endpoint: median survival time, dose: 2.5 mg/kg/injection, schedule: Q01DX009 (ip), vehicle: suspension in saline",158 % of control
same,T/C,"endpoint: median survival time, dose: 5.0 mg/kg/injection, schedule: Q01DX009 (ip), vehicle: suspension in saline",175 % of control
same,T/C,"endpoint: median survival time, dose: 10.0 mg/kg/injection, schedule: Q01DX009 (ip), vehicle: suspension in saline",91 % of control
O=[N+]([O-])c1ccc(C2C3C(c4ccccc4)=NCN32)cc1 (configuration not stated),T/C,[1],96 % of control
same,T/C,[2],97 % of control
same,T/C,[3],92 % of control
Nc1cc2c(c[n+](Cc3ccccc3)c3ccccc23)c2ccccc12,T/C,"endpoint: mean survival time, dose: 0.39 mg/kg/injection, schedule: Q04DX003 (ip), vehicle: other",104 % of control
same,T/C,"endpoint: mean survival time, dose: 0.78 mg/kg/injection, schedule: Q04DX003 (ip), vehicle: other",98 % of control
same,T/C,"endpoint: mean survival time, dose: 1.56 mg/kg/injection, schedule: Q04DX003 (ip), vehicle: other",104 % of control
same,T/C,"endpoint: mean survival time, dose: 6.25 mg/kg/injection, schedule: Q04DX003 (ip), vehicle: other",91 % of control
CCN(N=O)C(=O)N(Cc1ccccc1)Cc1ccccc1,T/C,"endpoint: mean survival time, dose: 25.0 mg/kg/injection, schedule: Q01DX009 (ip), vehicle: other",94 % of control
same,T/C,"endpoint: mean survival time, dose: 50.0 mg/kg/injection, schedule: Q01DX009 (ip), vehicle: other",94 % of control
same,T/C,"endpoint: mean survival time, dose: 100.0 mg/kg/injection, schedule: Q01DX009 (ip), vehicle: other",96 % of control
same,T/C,"endpoint: mean survival time, dose: 200.0 mg/kg/injection, schedule: Q01DX009 (ip), vehicle: other",96 % of control
C=C(C)C1CCC2(C(=O)O)CCC3(C)C(CCC4C5(C)CCC(OC(C)=O)C(C)(C)C5CCC43C)C12 (configuration not stated),T/C,"endpoint: mean survival time, dose: 100.0 mg/kg/injection, schedule: Q01DX001 (ip), vehicle: Klucel (hydroxypropylcellulose) (HPC)",93 % of control
same,T/C,"endpoint: mean survival time, dose: 200.0 mg/kg/injection, schedule: Q01DX001 (ip), vehicle: Klucel (hydroxypropylcellulose) (HPC)",93 % of control
same,T/C,"endpoint: mean survival time, dose: 400.0 mg/kg/injection, schedule: Q01DX001 (ip), vehicle: Klucel (hydroxypropylcellulose) (HPC)",91 % of control
COc1cc2c3c(c1O)-c1c(ccc(OC)c1OC)CC3N(C)CC2 (configuration not stated),T/C,[4],92 % of control
same,T/C,[5],105 % of control
same,T/C,[6],97 % of control
CCCCCCC[CH2][Sn]([CH2]C)([CH2]C)[O]C(C)=O,T/C,"endpoint: mean survival time, dose: 0.25 mg/kg/injection, schedule: Q04DX003 (ip), vehicle: saline",106 % of control
same,T/C,"endpoint: mean survival time, dose: 0.5 mg/kg/injection, schedule: Q04DX003 (ip), vehicle: saline",101 % of control
same,T/C,"endpoint: mean survival time, dose: 0.63 mg/kg/injection, schedule: Q04DX003 (ip), vehicle: saline",93 % of control
same,T/C,"endpoint: mean survival time, dose: 1.0 mg/kg/injection, schedule: Q04DX003 (ip), vehicle: saline",103 % of control
same,T/C,"endpoint: mean survival time, dose: 1.25 mg/kg/injection, schedule: Q04DX003 (ip), vehicle: saline",102 % of control
CC(N(N=O)c1cccc(Cl)c1)S(=O)(=O)O (configuration not stated),T/C,"endpoint: mean survival time, dose: 100.0 mg/kg/injection, schedule: Q04DX002 (ip), vehicle: saline with Tween-80",101 % of control
same,T/C,"endpoint: mean survival time, dose: 200.0 mg/kg/injection, schedule: Q04DX002 (ip), vehicle: saline with Tween-80",97 % of control
same,T/C,"endpoint: mean survival time, dose: 400.0 mg/kg/injection, schedule: Q04DX002 (ip), vehicle: saline with Tween-80",86 % of control
OC(CF)CCl (configuration not stated),T/C,[7],96 % of control
same,T/C,[8],100 % of control
same,T/C,[9],121 % of control
Cc1cc(NC(=O)c2ccc(Cl)cc2)ccc1Cl,T/C,[1],97 % of control
same,T/C,[2],97 % of control
same,T/C,[3],106 % of control
COC(=O)/C(=N\NS(=O)(=O)c1ccc(C)cc1)c1ccccc1,T/C,"endpoint: mean survival time, dose: 25.0 mg/kg/injection, schedule: Q01DX009 (ip), vehicle: Klucel (hydroxypropylcellulose) (HPC)",100 % of control
same,T/C,"endpoint: mean survival time, dose: 50.0 mg/kg/injection, schedule: Q01DX009 (ip), vehicle: Klucel (hydroxypropylcellulose) (HPC)",102 % of control
same,T/C,"endpoint: mean survival time, dose: 100.0 mg/kg/injection, schedule: Q01DX009 (ip), vehicle: Klucel (hydroxypropylcellulose) (HPC)",102 % of control
same,T/C,"endpoint: mean survival time, dose: 200.0 mg/kg/injection, schedule: Q01DX009 (ip), vehicle: Klucel (hydroxypropylcellulose) (HPC)",91 % of control
same,T/C,"endpoint: mean survival time, dose: 400.0 mg/kg/injection, schedule: Q01DX009 (ip), vehicle: Klucel (hydroxypropylcellulose) (HPC)",91 % of control
CC(=O)c1cc(-c2ccc(C)cc2)nc2c(C)cc(C)cc12,T/C,[1],92 % of control
same,T/C,[2],86 % of control
same,T/C,[3],92 % of control
CC12CCCC1=[N+]1CCCCC1CC2=O (configuration not stated),T/C,[8],101 % of control
same,T/C,[9],101 % of control
C/C=C/C(=O)NCC(C(C)C)/[N+]([O-])=N/O (configuration not stated),T/C,"endpoint: mean survival time, dose: 6.25 mg/kg/injection, schedule: Q01DX009 (ip), vehicle: saline with Tween-80",94 % of control
same,T/C,"endpoint: mean survival time, dose: 12.5 mg/kg/injection, schedule: Q01DX009 (ip), vehicle: saline with Tween-80",103 % of control
same,T/C,"endpoint: mean survival time, dose: 25.0 mg/kg/injection, schedule: Q01DX009 (ip), vehicle: saline with Tween-80",94 % of control
CCCCS(=O)CC(CO)NC(=O)/C=C/c1c(C)[nH]c(=O)[nH]c1=O (configuration not stated),T/C,"endpoint: mean survival time, dose: 0.63 mg/kg/injection, schedule: Q01DX009 (ip), vehicle: water",115 % of control and 105 % of control
same,T/C,"endpoint: mean survival time, dose: 1.25 mg/kg/injection, schedule: Q01DX009 (ip), vehicle: water",112 % of control
same,T/C,"endpoint: mean survival time, dose: 2.5 mg/kg/injection, schedule: Q01DX009 (ip), vehicle: water",118 % of control and 121 % of control
same,T/C,"endpoint: mean survival time, dose: 5.0 mg/kg/injection, schedule: Q01DX009 (ip), vehicle: water",116 % of control
same,T/C,"endpoint: mean survival time, dose: 10.0 mg/kg/injection, schedule: Q01DX009 (ip), vehicle: water",98 % of control
Nc1ccc(OCc2nc(N)nc(N)c2-c2ccc(Cl)cc2)cc1,T/C,"endpoint: mean survival time, dose: 50.0 mg/kg/injection, schedule: Q01DX001 (ip), vehicle: saline with Tween-80",95 % of control
same,T/C,[4],101 % of control
same,T/C,[5],93 % of control
CCOc1ccc(/C=C/c2ccc3ccccc3[n+]2C)cc1OCC,T/C,"endpoint: mean survival time, dose: 25.0 mg/kg/injection, schedule: Q01DX001 (ip), vehicle: saline with Tween-80",102 % of control
Cc1cc(C)c(S(=O)(=O)Nc2cc(C)ccc2C)c(C)c1,T/C,[4],98 % of control
same,T/C,[5],96 % of control
same,T/C,[6],102 % of control
Cc1cc(C)[nH]c(=O)n1,T/C,[8],94 % of control
same,T/C,[9],102 % of control
same,T/C,"endpoint: mean survival time, dose: 400.0 mg/kg/injection, schedule: Q04DX003 (ip), vehicle: saline",94 % of control
CCCCN1CCNCC1,T/C,[8],93 % of control
same,T/C,[9],94 % of control
[N-]=[N+]=NCC1OC(OC2(CO)OC(CN=[N+]=[N-])C(O)C2O)C(O)C(O)C1O (configuration not stated),T/C,"endpoint: mean survival time, dose: 50.0 mg/kg/injection, schedule: Q01DX009 (ip), vehicle: saline",102 % of control
same,T/C,"endpoint: mean survival time, dose: 100.0 mg/kg/injection, schedule: Q01DX009 (ip), vehicle: saline",102 % of control
COc1ccc(N2CSC(=S)N(c3ccc(OC)cc3)C2)cc1,T/C,"endpoint: mean survival time, dose: 100.0 mg/kg/injection, schedule: Q04DX003 (ip), vehicle: other",94 % of control
O=S(=O)(Cl)c1ccc(-c2ccc(S(=O)(=O)Cl)cc2)cc1,T/C,[10],95 % of control
same,T/C,[11],106 % of control
same,T/C,[12],103 % of control
Cc1ccc(/C=C2\CCOC2=O)cc1,T/C,[10],102 % of control
same,T/C,[11],96 % of control
same,T/C,[12],96 % of control
CN(C)N=Nc1cccc([N+](=O)[O-])c1,T/C,"endpoint: mean survival time, dose: 79.0 mg/kg/injection, schedule: Q01DX009 (ip), vehicle: Klucel (hydroxypropylcellulose) (HPC)",107 % of control
same,T/C,"endpoint: mean survival time, dose: 118.0 mg/kg/injection, schedule: Q01DX009 (ip), vehicle: Klucel (hydroxypropylcellulose) (HPC)",102 % of control
CCNc1nc(NC(C)C)nc(OC)n1,T/C,[7],98 % of control
same,T/C,"endpoint: mean survival time, dose: 100.0 mg/kg/injection, schedule: Q01DX009 (ip), vehicle: saline with Tween-80",93 % of control
same,T/C,[8],101 % of control
same,T/C,"endpoint: mean survival time, dose: 200.0 mg/kg/injection, schedule: Q01DX009 (ip), vehicle: saline with Tween-80",96 % of control
same,T/C,[9],103 % of control
